Results from US8552013B2, “Heterocyclic compounds based on N6-substituted adenine, methods of their preparation, their use for preparation of drugs, cosmetic preparations and growth regulators, pharmaceutical preparations, cosmetic preparations and growth regulators containing these compounds” (USTAV Experimentalni Botaniky Akademie Ved Ceske Republiky, priority 2001, dated 2013).
pIC50: −log10 of the molar value. Where “and” joins values, the source holds several entries; their conditions need not be identical. Identical values can stand only once. Like-named read-outs stand apart in the source and are kept apart here.

Legend:
[1] = tested on: T-lymphoblastic leukemia cell line CEM; assay: Calcein AM cytotoxicity, CEM; assay type: cell-based, human
From the text: (§1) One of the parameters used, as the basis for cytotoxicity assays, is the metabolic activity of viable cells. For example, a microtiter assay, which uses the Calcein AM, is now widely used to quantitate cell proliferation and cytotoxicity. For instance, this assay is used in drug screening programs and in chemosensitivity testing. Because only metabolically active cells cleave Calcein AM, these assays detect viable cells exclusively. The quantity of reduced Calcein AM corresponds to the number of vital cells in the culture.
(§2) The cells were maintained in Nunc/Corning 80 cm^2 plastic tissue culture flasks and cultured in cell culture medium (DMEM with 5 g/l glucose, 2 mM glutamine, 100 U/ml penicillin, 100 μg/ml streptomycin, 10% fetal calf serum and sodium bicarbonate).
(§3) The cell suspensions that were prepared and diluted according to the particular cell type and the expected target cell density (2.500-30.000 cells per well based on cell growth characteristics) were added by pipette (80 μl) into 96/well microtiter plates. Inoculates were allowed a pre-incubation period of 24 hours at 37° C. and 5% CO2 for stabilisation. Four-fold dilutions of the intended test concentration were added at time zero in 20 μl aliquots to the microtiter plate wells. Usually, test compound was evaluated at six 4-fold dilutions. […] All drug concentrations were examined in duplicates. Incubations of cells with the test compounds lasted for 72 hours at 37° C., in 5% CO2 atmosphere and 100% humidity. At the end of incubation period, the cells were assayed by using the Calcein AM. Ten microliters of the stock solution were pipetted into each well and incubated further for 1 hours. Fluorescence (FD) was measured with the Labsystem FIA Reader Fluoroscan Ascent (UK).

[2] = tested on: breast carcinoma cell line MCF-7; assay: Calcein AM cytotoxicity, MCF7; assay type: cell-based, human; settings: read-out: IC 50, MCF7
From the text: as §1, §2, §3

[3] = tested on: Triticum aestivum cv. Hereward leaf tips; assay: Retention of chlorophyll in excised wheat leaf tips; assay type: in vivo; settings: chlorophyll retention at the concentration with highest activity
Experimental: Seeds of winter wheat, Triticum aestivum cv. Hereward, were washed under running water for 24 hours and then sown on vermiculite soaked with Knop's solution. They were placed in the grown chamber at 25° C. with a 16/8 h light period at 50 μmol.m^−2.s^−1. After 7 days, the first leaf was fully developed and the second leaf had started to grow. A tip section of the first leaf, approximately 35 mm long, was removed from 5 seedlings and trimmed slightly to a combined weight of 100 mg. The basal ends of the five leaf tips were placed in the wells of a microtiter polystyrene plate containing 150 μl of a cytokinin solution each. The entire plate was inserted into a plastic box lined with paper tissues soaked in distilled water to prevent leaf sections from drying out. After a 96 h incubation in the dark at 25° C., the leaves were removed and chlorophyll extracted by heating at 80° C. for 10 min in 5 ml of 80% ethanol (v/v). The sample volume was then restored to 5 ml by the addition of 80% ethanol (v/v). The absorbency of the extract was recorded at 665 nm. In addition, chlorophyll extracts from fresh leaves and leaf tips incubated in deionised water were measured. From the obtained data, the concentration with highest activity was selected for each compound tested. Relative activity of the compound at this concentration was calculated (Tab. 6). The activity obtained for 10^−4 M 6-benzylaminopurine (BAP) was postulated as 100%. The values shown are means of five replicates and the whole experiment was repeated twice. The cytokinins to be tested were dissolved in dimethylsulfoxide (DMSO) and the solution brought up to 10^−3M with distilled water. This stock was further diluted in distilled water to concentrations ranging from 10^−8M to 10^−4M.

[4] = tested on: Amaranthus caudatus cotyledon/hypocotyl explants; assay: Amaranthus bioassay, betacyanin content; assay type: in vivo; settings: betacyanin content at the concentration with highest activity
Experimental: Standard Amaranthus bioassay was performed with several modifications. The seeds of Amaranthus caudatus var. atropurpurea were surface-sterilised in 10% N-chlorobenzenesulfonamide (w/v) for 10 min and washed 5 times in deionized water. They were placed in 14 cm Petri dishes containing paper tissues saturated with deionized water. After 72 h of cultivation at 25° C. in darkness, the roots of the seedlings were cut off. The explants, consisting of two cotyledons and hypocotyls, were placed in 5 cm Petri dishes on two layers of filter paper soaked in 1 ml of incubation medium containing 10 μmol NA2HPO4-KH2PO4, pH 6.8, 5 μmol tyrosine and the cytokinin to be tested. There were 20 explants per dish. The procedure was carried out under a green safe light in a darkroom. After a 48 h of incubation at 25° C. in darkness, betacyanin was extracted by freezing the explants in 4 ml […] acetic acid. The concentration of betacyanin was determined by comparing the absorbance at 537 nm and 620 nm as follows: ΔA=[…] nm-A620 nm. From the obtained data, the concentration with highest activity was selected for each compound tested. Relative activity of the compound at this concentration was calculated (Tab. 6). […] The values shown in table 8 are means of five replicates and the entire test was repeated twice. The cytokinins to be tested were dissolved in dimethylsulfoxide (DMSO) and the solution brought up to 10^-3M with distilled water. This stock was further diluted in the respective media used for the biotest to concentrations ranging from 10^-8M to 10^-4M.

[5] = tested on: K-562; assay: Calcein AM cytotoxicity, K-562; assay type: cell-based; settings: read-out: IC 50, K-562
From the text: as §1, §2, §3

[6] = tested on: B16-F0 melanoma; assay: Calcein AM cytotoxicity, B16-F0; assay type: cell-based; settings: Mus musculus, B16F0, 72 h, read-out: IC 50, B16-F0
From the text: as §1
(§4) Human T-lymphoblastic leukemia cell line CEM; promyelocytic HL-60 and monocytic U937 leukemias; breast carcinoma cell lines MCF-7, BT549, MDA-MB-231; glioblastoma U87MG cells; cervical carcinoma cells HELA; sarcoma cells U2OS and Saos2; hepatocellular carcinoma HepG2; mouse fibroblasts NIH3T3; mouse immortalized bone marrow macrophages B2.4 and B10A.4; P388D1 and L1210 leukemia; B16 and B16F10 melanomas were used for routine screening of compounds. The cells were maintained in Nunc/Corning 80 cm^2 plastic tissue culture flasks and cultured in cell culture medium (DMEM with 5 g/l glucose, 2 mM glutamine, 100 U/ml penicillin, 100 μg/ml streptomycin, 10% fetal calf serum and sodium bicarbonate).
(§5) The cell suspensions that were prepared and diluted according to the particular cell type and the expected target cell density (2.500-30.000 cells per well based on cell growth characteristics) were added by pipette (80 μl) into 96/well microtiter plates. Inoculates were allowed a pre-incubation period of 24 hours at 37° C. and 5% CO2 for stabilisation. Four-fold dilutions of the intended test concentration were added at time zero in 20 μl aliquots to the microtiter plate wells. Usually, test compound was evaluated at six 4-fold dilutions. In routine testing, the highest well concentration was […], but it can be the matter of change dependent on the agent. All drug concentrations were examined in duplicates. Incubations of cells with the test compounds lasted for 72 hours at 37° C., in 5% CO2 atmosphere and 100% humidity. At the end of incubation period, the cells were assayed by using the Calcein AM. Ten microliters of the stock solution were pipetted into each well and incubated further for 1 hours. Fluorescence (FD) was measured with the Labsystem FIA Reader Fluoroscan Ascent (UK). The tumour cell survival (GI50) was calculated using the following equitation: TCS═(FDdrug exposed well/mean FDcontrol wells)×100%. The GI50 value, the drug concentration lethal to 50% of the tumour cells, was calculated from the obtained dose response curves (FIG. 1).

[7] = tested on: promyelocytic HL-60 leukemia; assay: Calcein AM cytotoxicity, HL60; assay type: cell-based, human; settings: read-out: IC 50, HL60
From the text: as §1, §2, §3

[8] = tested on: tobacco callus Nicotiana tabacum L. cv. Wisconsin 38; assay: Cytokinin-dependent tobacco callus growth; assay type: cell-based; settings: fresh callus weight at the concentration with highest activity
Experimental: Cytokinin-dependent tobacco callus Nicotiana tabacum L. cv. Wisconsin 38 was maintained at 25° C. in darkness on modified Murashige-Skoog medium, containing per 1 liter: 4 μmol nicotinic acid, 2.4 μmol pyridoxine hydrochloride, 1.2 μmol thiamine, 26.6 μmol glycine, 1.37 μmol glutamine, 1.8 μmol myo-inositol, 30 g of sucrose, 8 g of agar, 5.37 μmol α-naphtylacetic acid (NAA) and 0.5 μmol benzylaminopurine (BAP). Subcultivation was carried out every three weeks. Fourteen days before the bioassay, the callus tissue was transferred to the media without 6-benzylaminopurine (BAP). Biological activity was determined from the increase in fresh callus weight after four weeks of cultivation. Five replicates were prepared for each cytokinin concentration and the entire test was repeated twice. From the obtained data, the concentration with highest activity was selected for each compound tested. Relative activity of the compound at this concentration was calculated (Tab. 6). The activity obtained for 10^−4 M 6-benzylaminopurine (BAP) was postulated as 100%. The cytokinins to be tested were dissolved in dimethylsulfoxide (DMSO) and the solution brought up to 10^−3M with distilled water. This stock was further diluted in the respective media used for the biotest to concentrations ranging from 10^−8M to 10^−4M.

[9] = tested on: human diploid fibroblasts (HCA cells); assay: Senescence, beta-galactosidase staining of human diploid fibroblasts; assay type: cell-based
Experimental: In this example, human diploid fibroblasts (HCA cells of various passage levels: passage 25—designated HCA25; passage 45—designated HCA45; passage 80—designated HCA80) were stained for β-galactosidase activity. The medium used for cell cultivation was removed, the cells were washed twice in […], and fixed in 2-3 ml of fixing solution comprised of a 2% formaldehyde and 0.2% glutaraldehyde in PBS. The cells were incubated at room temperature for 5 minutes, then washed twice with PBS. The cells were subsequently incubated at 37° C. (without CO2) for 1 to 16 hours in 2-3 ml of a solution comprising potassium ferricyanide (5 mM), potassium ferrocyanide (5 mM), MgCl2 (2 mM), X-gal (5-bromo-4-chloro-3-indolyl-β-D-galactopyranoside) (1 mg/ml), in citric/phosphate buffer, pH 6.0). […] In this experiment, senescent cells, but not other cells were stained blue due to the action of β-galactosidase on the substrate (FIG. 4).

[10] = tested on: HOS; assay: Calcein AM cytotoxicity, HOS; assay type: cell-based
From the text: as §1, §4, §5

SMILES	pIC50 ([1]; Homo sapiens, 72 h)	pIC50 ([2]; Homo sapiens, MCF7, 72 h)	Activity (%) [10^−4 mol · l^−1 BAP = 100%] [3]	activity (%) [10^−5 mol · l^−1 BAP = 100%] [4]	pIC50 ([5]; Homo sapiens, K562, 72 h)	pIC50 [6]	pIC50 ([7]; Homo sapiens, HL-60, 72 h)	Activity (%) [10^−4 mol · l^−1 BAP = 100%] [8]	also measured
COc1cc(OC)c(CNc2ncnc3nc[nH]c23)c(OC)c1 [6-(2,4,6-trimethoxybenzylamino)purine]	4.20	< 3.78	6 (±4) %	3 (±3) %	< 3.78	< 3.78	3.81	13 (±6) %	pIC50 ([1]; 72 hours, listed as 2,4,6triMeO BAP): 3.98
Clc1ccccc1CNc1ncnc2nc[nH]c12 [6-(2-chlorobenzylamino)purine]			116.5 (±6.5) %	109 (±8) %		4.77		93 (±4) %	
Oc1ccc(CNc2ncnc3nc[nH]c23)cc1O [6-(3,4-dihydroxybenzylamino)purine]	< 3.78	< 3.78		8 (±3) %	< 3.78	< 3.78	< 3.78	4 (±1) %	SENESCENT CELLS (%) HCA25 ([9]; passage 25): 5%; SENESCENT CELLS (%) HCA45 ([9]; passage 45): 4%; SENESCENT CELLS (%) HCA80 ([9]; passage 80): 29%
Clc1cccc(CNc2ncnc3nc[nH]c23)c1 [6-(3-chlorobenzylamino)purine]			82 (±2) %	96 (±5) %	< 3.78			94 (±6) %	pIC50 ([10]; Homo sapiens, HOS, 72 h): < 3.78
COc1ccc(CNc2ncnc3nc[nH]c23)cc1O [6-(3-hydroxy-4-methoxybenzylamino)purine]	< 3.78	< 3.78		24 (±1) %	< 3.78	< 3.78	< 3.78		
Clc1ccc(CNc2ncnc3nc[nH]c23)cc1 [6-(4-chlorobenzylamino)purine]	< 3.78	< 3.78	64.5 (±13.5) %	35 (±7) %	< 3.78		< 3.78	64 (±8) %	pIC50 ([10]; Homo sapiens, HOS, 72 h): < 3.78
COc1cc(CNc2ncnc3nc[nH]c23)ccc1O [6-(4-hydroxy-3-methoxybenzylamino)purine]	< 3.78	< 3.78		10 (±2) %	< 3.78	< 3.78	< 3.78		
O=[N+]([O-])c1ccc(CNc2ncnc3nc[nH]c23)cc1 [6-(4-nitrobenzylamino)purine]	< 3.78	< 3.78	83 (±8) %	25 (±2) %	< 3.78	< 3.78	< 3.78		
CC(C)=CCNc1ncnc2nc[nH]c12 [IP, isopentenyladenine, reference compound]									pIC50 ([1]; 72 hours): 4.04; pIC50 ([2]; 72 hours): < 3.78; pIC50 ([10]; 72 hours): < 3.78; pIC50 ([5]; 72 hours): 3.83 and 3.79; pIC50 ([7]; 72 hours): < 3.78
c1coc(CNc2ncnc3[nH]cnc23)c1 [Kinetin, reference compound]		< 3.78			< 3.78				pIC50 ([1]; Homo sapiens, 72 hours): 3.81; pIC50 ([10]; Homo sapiens, HOS, 72 h): < 3.78; pIC50 ([5]; Homo sapiens, K562, 72 hours): 3.78
C/C(=C/CNc1ncnc2nc[nH]c12)CO [cis Z, reference compound]									pIC50 ([1]; 72 hours): < 3.78; pIC50 ([2]; 72 hours): < 3.78; pIC50 ([10]; 72 hours): < 3.78; pIC50 ([7]; 72 hours): < 3.78
